Laboratory results taken from US20230157292A1, “SEED COATING FORMULA FOR CONTROLLING SOYBEAN SOUTHERN BLIGHT AND SOYBEAN SHEATH BLIGHT” (Institute of Plant Protection and Agro-products Safety, …, priority 2022, published 2023).

Legend:
Rhizoctonia solani = test: Hypha growth inhibition, toxicity determination for Rhizoctonia solani; type: cell-based; settings: PDA medium, 25° C.
Protocol: (§1) Fungicidal properties of Thifluzamide and Ipconazole were analyzed in detail.
(§2) Test targets were Rhizoctonia solani and Sclerotium rolfsii, but not limited herein. […] Hypha blocks having a diameter of 5 mm were made on the edges of pre-culture colonies by a sterilized puncher and respectively transferred onto different medium plates for culturing at 25° C. A hypha growth measurement method was adopted in the test to prepare drug-containing media according to different treatments; the hypha blocks having the diameter of 5 mm were made on the edges of pre-culture colonies by the sterilized puncher and respectively transferred onto medium plates having different drug contents; a colony diameter was measured by a crossing method; the colony diameter (mm) was measured; and a growth inhibition ratio was calculated by the following formulas: […]
(§3) The hypha growth inhibition ratio was converted into an inhibition probability value (y); the agent concentration was converted into a concentration logarithm (x); a toxic regression line was drawn by taking the concentration logarithm as a horizontal coordinate and taking the probability value as a vertical coordinate; a toxic regression equation of the single agents such as the Thfiluzamide and Ipconazole and a mixture thereof for pathogenic bacteria was solved; and the EC50 value and a related ratio r were calculated. […]

Sclerotium rolfsii = test: Hypha growth inhibition, toxicity determination for Sclerotium rolfsii; type: cell-based; settings: PDA medium, 25° C.
Protocol: as §1, §2, §3

rabbit = settings: cited from earlier work
[1] = pH value of 5-9; cited from earlier work

| Compound | EC50 ppm (Rhizoctonia solani) [ppm] | EC50 ppm (Sclerotium rolfsii) [ppm] | acute dermal LD50 (rabbit) [mg/kg] | stability [1] |
| --- | --- | --- | --- | --- |
| CC(C)C1CCC(Cc2ccc(Cl)cc2)C1(O)Cn1cncn1 (stereo not drawn) [Ipconazole, (1RS, 2SR, 5RS; 1RS, 2SR, 5 SR)-2-(4-chlorobenzyl)-5-isopropyl-1-(1H-1,2,4-triazole-1-ylmethyl) cyclopentanol] | 0.0217 | 0.0327 | – | – |
| Cc1nc(C(F)(F)F)c(C(=O)Nc2c(Br)cc(OC(F)(F)F)cc2Br)s1 [Thifluzamide, 2′,6′-dibromo-2-methyl-4′-trifluoromethoxy-4-trifluoromethyl-1,3-thiadiazole-5-hydroxyanilide] | 0.154 | 0.1258 | > 2000 | stable |
